In patent US10913757B2, “Hydroxycinnamic derivatives, methods and uses thereof” (UNIVERSIDADE DO PORTO, priority 2016, dated 2021):

Legend:
Assay type in all cases: biochemical
[1] = DPPH radical scavenging activity (TAC assay); conditions: ethanol, absorbance 515 nm
Source text: (§1) In an embodiment, the AntiOxCINs antioxidant ranking activity hierarchy was established by in vitro non-cell methods. The selected total antioxidant capacity (TAC) assays (DPPH, ABTS and GO) involved the spectrophotometric measurement of the radical absorbance decrease as a result of an in situ radical deactivation by an antioxidant. Compounds with higher antioxidant activity display lower IC50 values. […] This decrease was attenuated/ameliorated by the increment of the spacer length and/or the introduction of additional hydroxyl group in the aromatic ring.
(§2) The radical scavenging activity of AntiOxCINs was evaluated by means of total antioxidant capacity assays based on DPPH., ABTS.^+ and GO. radicals. All these methods involved the spectrophotometric measurement of the absorbance decrease resulting from radical (DPPH., ABTS.^+ or GO.) deactivation with an antioxidant. The results were expressed in IC50, which is defined as the minimum antioxidant concentration necessary to reduce the amount of radical by 50%. Antioxidant assays were performed in a multiplate reader (Powerwave XS Microplate Reader) of Bio-Tech instruments.
In an embodiment, the DPPH. radical scavenging activity was performed as follows: solutions of the test compounds with increasing concentrations (range between 0 μM and 500 μM) were prepared in ethanol. A DPPH′ ethanolic solution (6.85 mM) was also prepared and then diluted to reach the absorbance of 0.72±0.02 at 515 nm. Each compound solution (20 μL) was added to 180 μL of DPPH′ solution in triplicate, and the absorbance at 515 nm was recorded minutely over 45 minutes. […] Dose-response curves were established for the determination of IC50 values. Data are means±SEM of three independent experiments.

[2] = ABTS radical cation scavenging activity (TAC assay); conditions: ethanol
Source text: as §1, §2
In an embodiment, the ABTS.^+ scavenging activity was evaluated as follows: ethanolic solutions of the test compounds with increasing concentrations (range between 10 μM and 500 μM) were prepared. ABTS.^+ radical cation solution was obtained by addition of 150 mM aqueous potassium persulfate solution (163 μL) to 10 mL of 7 mM aqueous ABTS solution followed by storage in the dark at room temperature for 16 h (2.45 mM final concentration). The solution was then diluted in ethanol to reach the absorbance of 0.72±0.02. After addition of the compound (20 μL), in triplicate, to ABTS.^+ solution (180 μL) the spectrophotometric measurement was carried out each minute over 15 minutes. […] Dose-response curves were established for the determination of IC50 values. Data are means±SEM of three independent experiments.

[3] = system: rat liver mitochondria (RLM); experiment: Mitochondrial transmembrane electric potential (ΔΨ) of RLM, safranine fluorescence; conditions: for ΔΨ in succinate-energized mitochondria: AntiOxCIN6 above 5 μM, AntiOxCIN7 10 μM
Protocol: In an embodiment, and as an example, AntiOxCINs and MitoQ toxicity effects on the mitochondrial bioenergetics, namely on RLM ΔΨ and mitochondrial respiration parameters, were measured. The […] represents the main component of the electrochemical gradient generated by mitochondrial respiration and accounts for more than 90% of the total available energy. For mitochondrial respiration assays, glutamate/malate (for complex I) and succinate (for complex II) were used as substrates. In addition, the mitochondrial oxidative phosphorylation coupling index, known as respiratory control ratio (RCR, state 3/state 4 respiration) and ADP/O index (the coupling between ATP synthesis and oxygen consumption) were also calculated. AntiOxCINs and MitoQ were tested at antioxidant-relevant concentrations, with 10 μM being the highest concentration.
In an embodiment, the evaluation of AntiOxCINs functional mitochondrial toxicity profile was performed in rat liver mitochondria (RLM). […] The protein concentration was determined by the biuret assay using BSA as a standard.
Then, 1 μM FCCP was added at the end of all experiments to depolarize mitochondria. ΔΨ was calculated using a calibration curve obtained when RLM were incubated in a K^+-free reaction medium containing 200 mM sucrose, 1 mM NaH2PO4, 10 mM Tris (pH 7.4) and 10 μM EGTA, supplemented with 0.4 μg valinomicin. […] “Repolarization” corresponded to the recovery of membrane potential after the complete phosphorylation of ADP added. Lag phase reflected the time required to phosphorylate the added ADP. […] Data are means±SEM of five independent experiments.

SMILES	IC50 [1]	IC50 [2]	initial slight hyperpolarization ([3]; 2.5 μM)	ΔΨ in succinate-energized mitochondria [3]	ADP-induced depolarization (ΔΨ in - mV) ([3]; glutamate/malate, 2.5 μM)	Lag Phase ([3]; glutamate/malate, 2.5 μM)	Maximum potential (ΔΨ in - mV) ([3]; glutamate/malate, 2.5 μM)	Repolarization Potential (ΔΨ in - mV) ([3]; glutamate/malate, 2.5 μM)	ADP-induced depolarization (ΔΨ in - mV) ([3]; glutamate/malate, 5 μM)	Lag Phase ([3]; glutamate/malate, 5 μM)	Maximum potential (ΔΨ in - mV) ([3]; glutamate/malate, 5 μM)	Repolarization Potential (ΔΨ in - mV) ([3]; glutamate/malate, 5 μM)	ADP-induced depolarization (ΔΨ in - mV) ([3]; glutamate/malate, 10 μM)	Lag Phase ([3]; glutamate/malate, 10 μM)	Maximum potential (ΔΨ in - mV) ([3]; glutamate/malate, 10 μM)	Repolarization Potential (ΔΨ in - mV) ([3]; glutamate/malate, 10 μM)	ADP-induced depolarization (ΔΨ in - mV) ([3]; succinate, 2.5 μM)	Lag Phase ([3]; succinate, 2.5 μM)	Maximum potential (ΔΨ in - mV) ([3]; succinate, 2.5 μM)	Repolarization Potential (ΔΨ in - mV) ([3]; succinate, 2.5 μM)	further results
CS(=O)(=O)[O-].O=C(/C=C/c1ccc(O)c(O)c1)NCCCCCCCCCC[P+](c1ccccc1)(c1ccccc1)c1ccccc1 [AntiOxCIN6, (E)-(10-(3-(3,4-dihydroxyphenyl)acrylamido)decyl)triphenylphosphonium methanesulfonate]	25.9 µM	23.5 µM	10 mV	significant decrease of ΔΨ	202.5 ± 5.7 mV	73.2 ± 8.8 s	237.9 ± 5.9 mV	233.3 ± 6.5 mV	197.9 ± 5.0 mV	75.2 ± 12.5 s	227.5 ± 6.5 mV	220.7 ± 6.2 mV	174.2 ± 16.8 mV	47.8 ± 8.7 s	200.5 ± 16.80 mV	185.3 ± 20.8 mV	166.8 ± 6.1 mV	77.8 ± 11.2 s	181.9 ± 6.2 mV	177.7 ± 4.5 mV	ADP-induced depolarization (ΔΨ in - mV) ([3]; succinate, 5 μM): 167.1 ± 5.7 mV; Lag Phase ([3]; succinate, 5 μM): 83.4 ± 11.5 s; Maximum potential (ΔΨ in - mV) ([3]; succinate, 5 μM): 178.3 ± 4.7 mV; Repolarization Potential (ΔΨ in - mV) ([3]; succinate, 5 μM): 178.1 ± 5.1 mV; ADP-induced depolarization (ΔΨ in - mV) ([3]; succinate, 10 μM): 143.6 ± 11.0 mV; Lag Phase ([3]; succinate, 10 μM): 62.2 ± 11.2 s; Maximum potential (ΔΨ in - mV) ([3]; succinate, 10 μM): 151.7 ± 9.3 mV; Repolarization Potential (ΔΨ in - mV) ([3]; succinate, 10 μM): 149.0 ± 11.2 mV
CS(=O)(=O)[O-].O=C(/C=C/c1cc(O)c(O)c(O)c1)NCCCCCCCCCC[P+](c1ccccc1)(c1ccccc1)c1ccccc1 [AntiOxCIN7, (E)-(10-(3-(3,4,5-trihydroxyphenyl)acrylamido)decyl)triphenylphosphonium methanesulfonate]	13.7 µM	7.5 µM	25 mV	significant decrease of ΔΨ	212.2 ± 7.9 mV	73.4 ± 8.4 s	251.8 ± 8.7 mV	248.3 ± 8.3 mV	212.6 ± 3.2 mV	71.0 ± 10.7 s	248.1 ± 3.3 mV	243.5 ± 5.0 mV	197.1 ± 11.8 mV	58.6 ± 5.4 s	232.1 ± 9.2 mV	212.6 ± 18.4 mV	183.8 ± 6.0 mV	80.0 ± 14.9 s	205.3 ± 7.3 mV	199.4 ± 7.1 mV	ADP-induced depolarization (ΔΨ in - mV) ([3]; succinate, 5 μM): 176.2 ± 8.7 mV; Lag Phase ([3]; succinate, 5 μM): 76.0 ± 9.6 s; Maximum potential (ΔΨ in - mV) ([3]; succinate, 5 μM): 191.1 ± 9.0 mV; Repolarization Potential (ΔΨ in - mV) ([3]; succinate, 5 μM): 186.8 ± 7.5 mV; ADP-induced depolarization (ΔΨ in - mV) ([3]; succinate, 10 μM): 163.6 ± 3.2 mV; Lag Phase ([3]; succinate, 10 μM): 65.0 ± 8.7 s; Maximum potential (ΔΨ in - mV) ([3]; succinate, 10 μM): 176.9 ± 3.1 mV; Repolarization Potential (ΔΨ in - mV) ([3]; succinate, 10 μM): 171.0 ± 5.0 mV
